Columns and labels:
Mus musculus [1] = experiment: Percentage increase in seizure threshold at dose of 10 mg/kg in mouse maximal electroshock seizure threshold (MEST) model after po administration; type: functional
SB-204269 binding site = experiment: Inhibition of [3H]-SB 204269 binding to rat forebrain membranes.; type: cell membranes, Membrane
Mus musculus [2] = experiment: Percentage increase in seizure threshold at dose of 3 mg/kg in mouse maximal electroshock seizure threshold (MEST) model after po administration

For `CC1(C)Oc2ccc([N+](=O)[O-])cc2C(NC(=O)c2ccc(F)cc2)C1O` (stereo not drawn), the Increase (Mus musculus [1]) was 45%, the “Log Ki” value (SB-204269 binding site) was -6.2 and the Increase (Mus musculus [2]) was 2%.
In the case of `CC(=O)c1ccc2c(c1)OC(C)(C)C(O)C2NC(=O)c1ccc(F)cc1` (stereo not drawn), the “Log Ki” value (SB-204269 binding site) was -5.51.
`CC1(C)Oc2ccc(C(N)=O)cc2C(NC(=O)c2ccc(F)cc2)C1O` (stereo not drawn) was tested, and the Increase (Mus musculus [1]) was 6% and the “Log Ki” value (SB-204269 binding site) was -6.06.
For `Cc1ccc2c(c1)C(NC(=O)c1ccc(F)cc1)C(O)C(C)(C)O2` (stereo not drawn), the Increase (Mus musculus [1]) was 5% and the “Log Ki” value (SB-204269 binding site) was -5.3.
For `CC1(C)Oc2ccc(F)cc2C(NC(=O)c2ccc(F)cc2)C1O` (stereo not drawn), the Increase (Mus musculus [1]) was 10% and the “Log Ki” value (SB-204269 binding site) was -5.38.
In the case of `CC(=O)c1ccc2c(c1)[C@H](NC(=O)c1ccccc1)[C@@H](O)C(C)(C)O2`, the Increase (Mus musculus [1]) was 110%, the “Log Ki” value (SB-204269 binding site) was -7.3 and the Increase (Mus musculus [2]) was 65%.
With `CC(=O)c1cccc2c1C(NC(=O)c1ccc(F)cc1)C(O)C(C)(C)O2` (stereo not drawn) the “Log Ki” value (SB-204269 binding site) was -5.09.
In the case of `CC(=O)c1cccc2c1OC(C)(C)C(O)C2NC(=O)c1ccc(F)cc1` (stereo not drawn), the Increase (Mus musculus [1]) was 5% and the “Log Ki” value (SB-204269 binding site) was -5.
For `CC(=O)c1ccc2c(c1)[C@H](NC(=O)c1cccc(I)c1)[C@@H](O)C(C)(C)O2`, the Increase (Mus musculus [1]) was 51% and the “Log Ki” value (SB-204269 binding site) was -8.28.
`CC(=O)c1ccc2c(c1)C(NC(=O)c1ccc(Cl)cc1)C(O)C(C)(C)O2` (stereo not drawn) was tested, and the Increase (Mus musculus [1]) was 55% and the “Log Ki” value (SB-204269 binding site) was -7.16.
In the case of `CC1(C)Oc2ccc(C#N)cc2[C@H](NC(=O)c2ccc(F)cc2)[C@H]1O`, the Increase (Mus musculus [1]) was 41%, the “Log Ki” value (SB-204269 binding site) was -6 and the Increase (Mus musculus [2]) was 15%.
In the case of `CCC(=O)c1ccc2c(c1)C(NC(=O)c1ccc(F)cc1)C(O)C(C)(C)O2` (stereo not drawn), the Increase (Mus musculus [1]) was 35% and the “Log Ki” value (SB-204269 binding site) was -6.8.
`CC(=O)c1ccc2c(c1)C(NC(=O)C1CCCCC1)C(O)C(C)(C)O2` (stereo not drawn) was tested, and the “Log Ki” value (SB-204269 binding site) was -5.9.
In the case of `CC1(C)Oc2ccc(C(F)(F)C(F)(F)F)cc2[C@H](NC(=O)c2ccc(F)cc2)[C@H]1O`, the Increase (Mus musculus [1]) was -8% and the “Log Ki” value (SB-204269 binding site) was -6.35.
For `CC1(C)Oc2ccc(C(=O)c3ccccc3)cc2C(NC(=O)c2ccc(F)cc2)C1O` (stereo not drawn), the “Log Ki” value (SB-204269 binding site) was -6.12.
`CC1(C)Oc2ccc(S(=O)(=O)c3ccccc3)cc2C(NC(=O)c2ccc(F)cc2)C1O` (stereo not drawn) was tested, and the Increase (Mus musculus [1]) was -7% and the “Log Ki” value (SB-204269 binding site) was -5.84.
In the case of `COC(=O)c1ccc2c(c1)C(NC(=O)c1ccc(F)cc1)C(O)C(C)(C)O2` (stereo not drawn), the Increase (Mus musculus [1]) was 59% and the “Log Ki” value (SB-204269 binding site) was -6.69.
For `CC(=O)c1ccc2c(c1)[C@@H](NC(=O)c1ccc(F)cc1)[C@H](O)C(C)(C)O2`, the Increase (Mus musculus [1]) was 8% and the “Log Ki” value (SB-204269 binding site) was less than -4.5.
`CC(=O)c1ccc2c(c1)[C@H](NC(=O)c1ccccc1Cl)[C@@H](O)C(C)(C)O2` was tested, and the “Log Ki” value (SB-204269 binding site) was -7.65 and the Increase (Mus musculus [2]) was 94%.
In the case of `CC(=O)c1ccc2c(c1)[C@H](NC(=O)c1cccc(Cl)c1)[C@@H](O)C(C)(C)O2`, the Increase (Mus musculus [1]) was 90%, the “Log Ki” value (SB-204269 binding site) was -8.04 and the Increase (Mus musculus [2]) was 78%.
For `CC(=O)c1ccc2c(c1)[C@H](NC(=O)c1ccc(F)cc1)[C@@H](O)C(C)(C)O2` [CARABERSAT], the Increase (Mus musculus [1]) was 102%, the “Log Ki” value (SB-204269 binding site) was -7.32 and the Increase (Mus musculus [2]) was 89%.
